Where two headings read alike, the source gives them in different places.
Tests used:
[1] = variable temperature CD, 20 mM sodium phosphate buffer, pH 7
[2] = molecular target: proteinase K (Parengyodontium album, UniProt P06873); assay: HPLC-based proteolysis assay with proteinase K; format: in vitro ADME
Chain of proteinase K (P06873 106-384, species assumed): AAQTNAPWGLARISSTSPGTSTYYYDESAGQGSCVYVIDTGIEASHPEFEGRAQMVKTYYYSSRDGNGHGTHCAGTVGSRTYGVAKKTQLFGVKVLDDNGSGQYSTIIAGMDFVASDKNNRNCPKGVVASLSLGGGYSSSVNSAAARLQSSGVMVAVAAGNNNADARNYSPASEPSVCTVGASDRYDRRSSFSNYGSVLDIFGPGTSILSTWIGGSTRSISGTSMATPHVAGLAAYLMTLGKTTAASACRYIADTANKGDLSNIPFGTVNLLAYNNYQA

Compound	Tm (melting temperature) ([1]; 100 μM protein)	Tm (melting temperature) ([1]; 50 μM protein)	k, apparent proteolysis rate constant [2]
CC[C@H](C)[C@H](NC(=O)[C@H](Cc1c[nH]cn1)NC(=O)[C@H](CC(N)=O)NC(=O)[C@H](Cc1ccccc1)NC(=O)[C@H](Cc1ccc(O)cc1)NC(=O)[C@H](Cc1ccc(O)cc1)NC(=O)[C@@H](NC(=O)[C@H](CCCNC(=N)N)NC(=O)CNC(=O)[C@H](CO)NC(=O)[C@H](CC(N)=O)NC(=O)[C@H](CCCNC(=N)N)NC(=O)[C@H](CO)NC(=O)[C@H](CCSC)NC(=O)[C@H](CCCNC(=N)N)NC(=O)[C@H](CCCCN)NC(=O)[C@H](CCC(=O)O)NC(=O)[C@H](Cc1c[nH]c2ccccc12)NC(=O)CNC(=O)[C@@H]1CCCN1C(=O)[C@@H]1CCCN1C(=O)[C@H](CC(C)C)NC(=O)[C@@H](N)CCCCN)C(C)C)C(=O)N[C@H](C(=O)N[C@@H](CC(N)=O)C(=O)N[C@@H](C)C(=O)N[C@@H](CO)C(=O)N[C@@H](CCC(N)=O)C(=O)N[C@@H](Cc1ccccc1)C(=O)N[C@@H](CCC(=O)O)C(=O)N[C@@H](CCCNC(=N)N)C(=O)N1CCC[C@H]1C(=O)N[C@@H](CO)C(=O)NCC(=O)O)[C@@H](C)O [18N]	57.5 ±0.1 °C		
CC[C@H](C)[C@H](NC(=O)[C@H](Cc1c[nH]cn1)NC(=O)[C@H](CC(N)=O)NC(=O)[C@H](Cc1ccccc1)NC(=O)[C@H](Cc1ccc(O)cc1)NC(=O)[C@H](CC(N)=O)NC(=O)[C@@H](NC(=O)[C@H](CCCNC(=N)N)NC(=O)CNC(=O)[C@H](CO)NC(=O)[C@H](CO)NC(=O)[C@H](CCCNC(=N)N)NC(=O)[C@H](CO)NC(=O)[C@H](CCSC)NC(=O)[C@H](CCCNC(=N)N)NC(=O)[C@H](CCCCN)NC(=O)[C@H](CCC(=O)O)NC(=O)[C@H](Cc1c[nH]c2ccccc12)NC(=O)CNC(=O)[C@@H]1CCCN1C(=O)[C@@H]1CCCN1C(=O)[C@H](CC(C)C)NC(=O)[C@@H](N)CCCCN)C(C)C)C(=O)N[C@H](C(=O)N[C@@H](CC(N)=O)C(=O)N[C@@H](C)C(=O)N[C@@H](CO)C(=O)N[C@@H](CCC(N)=O)C(=O)N[C@@H](Cc1ccccc1)C(=O)N[C@@H](CCC(=O)O)C(=O)N[C@@H](CCCNC(=N)N)C(=O)N1CCC[C@H]1C(=O)N[C@@H](CO)C(=O)NCC(=O)O)[C@@H](C)O [23N]		27.7 ±0.3 °C	
CC[C@H](C)[C@H](NC(=O)[C@H](Cc1c[nH]cn1)NC(=O)[C@H](CC(N)=O)NC(=O)[C@H](Cc1ccccc1)NC(=O)[C@H](Cc1ccc(O)cc1)NC(=O)[C@H](CCC(N)=O)NC(=O)[C@@H](NC(=O)[C@H](CCCNC(=N)N)NC(=O)CNC(=O)[C@H](CO)NC(=O)[C@H](CO)NC(=O)[C@H](CCCNC(=N)N)NC(=O)[C@H](CO)NC(=O)[C@H](CCSC)NC(=O)[C@H](CCCNC(=N)N)NC(=O)[C@H](CCCCN)NC(=O)[C@H](CCC(=O)O)NC(=O)[C@H](Cc1c[nH]c2ccccc12)NC(=O)CNC(=O)[C@@H]1CCCN1C(=O)[C@@H]1CCCN1C(=O)[C@H](CC(C)C)NC(=O)[C@@H](N)CCCCN)C(C)C)C(=O)N[C@H](C(=O)N[C@@H](CC(N)=O)C(=O)N[C@@H](C)C(=O)N[C@@H](CO)C(=O)N[C@@H](CCC(N)=O)C(=O)N[C@@H](Cc1ccccc1)C(=O)N[C@@H](CCC(=O)O)C(=O)N[C@@H](CCCNC(=N)N)C(=O)N1CCC[C@H]1C(=O)N[C@@H](CO)C(=O)NCC(=O)O)[C@@H](C)O [23Q]		39.4 ±0.2 °C	46.9 ±5.3 s^−1 × 10^3
CC[C@H](C)[C@H](NC(=O)[C@H](Cc1c[nH]cn1)NC(=O)[C@H](CC(N)=O)NC(=O)[C@H](Cc1ccccc1)NC(=O)[C@H](Cc1ccc(O)cc1)NC(=O)[C@H](Cc1ccc(O)cc1)NC(=O)[C@@H](NC(=O)[C@H](CCCNC(=N)N)NC(=O)CNC(=O)[C@H](CO)NC(=O)[C@H](CO)NC(=O)[C@H](CCCNC(=N)N)NC(=O)[C@H](CC(N)=O)NC(=O)[C@H](CCSC)NC(=O)[C@H](CCCNC(=N)N)NC(=O)[C@H](CCCCN)NC(=O)[C@H](CCC(=O)O)NC(=O)[C@H](Cc1c[nH]c2ccccc12)NC(=O)CNC(=O)[C@@H]1CCCN1C(=O)[C@@H]1CCCN1C(=O)[C@H](CC(C)C)NC(=O)[C@@H](N)CCCCN)C(C)C)C(=O)N[C@H](C(=O)N[C@@H](CC(N)=O)C(=O)N[C@@H](C)C(=O)N[C@@H](CO)C(=O)N[C@@H](CCC(N)=O)C(=O)N[C@@H](Cc1ccccc1)C(=O)N[C@@H](CCC(=O)O)C(=O)N[C@@H](CCCNC(=N)N)C(=O)N1CCC[C@H]1C(=O)N[C@@H](CO)C(=O)NCC(=O)O)[C@@H](C)O [16N]	50.6 ±0.2 °C		
CC[C@H](C)[C@H](NC(=O)[C@H](Cc1c[nH]cn1)NC(=O)[C@H](CC(N)=O)NC(=O)[C@H](Cc1ccccc1)NC(=O)[C@H](Cc1ccc(O)cc1)NC(=O)[C@H](Cc1ccc(O)cc1)NC(=O)[C@@H](NC(=O)[C@H](CCCNC(=N)N)NC(=O)CNC(=O)[C@H](CO)NC(=O)[C@H](CO)NC(=O)[C@H](CCCNC(=N)N)NC(=O)[C@H](CCC(N)=O)NC(=O)[C@H](CCSC)NC(=O)[C@H](CCCNC(=N)N)NC(=O)[C@H](CCCCN)NC(=O)[C@H](CCC(=O)O)NC(=O)[C@H](Cc1c[nH]c2ccccc12)NC(=O)CNC(=O)[C@@H]1CCCN1C(=O)[C@@H]1CCCN1C(=O)[C@H](CC(C)C)NC(=O)[C@@H](N)CCCCN)C(C)C)C(=O)N[C@H](C(=O)N[C@@H](CC(N)=O)C(=O)N[C@@H](C)C(=O)N[C@@H](CO)C(=O)N[C@@H](CCC(N)=O)C(=O)N[C@@H](Cc1ccccc1)C(=O)N[C@@H](CCC(=O)O)C(=O)N[C@@H](CCCNC(=N)N)C(=O)N1CCC[C@H]1C(=O)N[C@@H](CO)C(=O)NCC(=O)O)[C@@H](C)O [16Q]		56.6 ±0.1 °C	8.9 ±0.2 s^−1 × 10^3
CC[C@H](C)[C@H](NC(=O)[C@H](CCC(N)=O)NC(=O)[C@H](CC(N)=O)NC(=O)[C@H](Cc1ccccc1)NC(=O)[C@H](Cc1ccc(O)cc1)NC(=O)[C@H](Cc1ccc(O)cc1)NC(=O)[C@@H](NC(=O)[C@H](CCCNC(=N)N)NC(=O)CNC(=O)[C@H](CO)NC(=O)[C@H](CO)NC(=O)[C@H](CCCNC(=N)N)NC(=O)[C@H](CO)NC(=O)[C@H](CCSC)NC(=O)[C@H](CCCNC(=N)N)NC(=O)[C@H](CCCCN)NC(=O)[C@H](CCC(=O)O)NC(=O)[C@H](Cc1c[nH]c2ccccc12)NC(=O)CNC(=O)[C@@H]1CCCN1C(=O)[C@@H]1CCCN1C(=O)[C@H](CC(C)C)NC(=O)[C@@H](N)CCCCN)C(C)C)C(=O)N[C@H](C(=O)N[C@@H](CC(N)=O)C(=O)N[C@@H](C)C(=O)N[C@@H](CO)C(=O)N[C@@H](CCC(N)=O)C(=O)N[C@@H](Cc1ccccc1)C(=O)N[C@@H](CCC(=O)O)C(=O)N[C@@H](CCCNC(=N)N)C(=O)N1CCC[C@H]1C(=O)N[C@@H](CO)C(=O)NCC(=O)O)[C@@H](C)O [27Q]		56.4 ±0.2 °C	10.8 ±0.2 s^−1 × 10^3
CC[C@H](C)[C@H](NC(=O)[C@H](Cc1c[nH]cn1)NC(=O)[C@H](CC(N)=O)NC(=O)[C@H](Cc1ccccc1)NC(=O)[C@H](Cc1ccc(O)cc1)NC(=O)[C@H](Cc1ccc(O)cc1)NC(=O)[C@@H](NC(=O)[C@H](CCCNC(=N)N)NC(=O)CNC(=O)[C@H](CO)NC(=O)[C@H](CO)NC(=O)[C@H](CCCNC(=N)N)NC(=O)[C@H](CO)NC(=O)[C@H](CCSC)NC(=O)[C@H](CCCNC(=N)N)NC(=O)[C@H](CCCCN)NC(=O)[C@H](CCC(=O)O)NC(=O)[C@H](Cc1c[nH]c2ccccc12)NC(=O)CNC(=O)[C@@H]1CCCN1C(=O)[C@@H]1CCCN1C(=O)[C@H](CC(C)C)NC(=O)[C@@H](N)CCCCN)C(C)C)C(=O)N[C@@H](CC(N)=O)C(=O)N[C@@H](CC(N)=O)C(=O)N[C@@H](C)C(=O)N[C@@H](CO)C(=O)N[C@@H](CCC(N)=O)C(=O)N[C@@H](Cc1ccccc1)C(=O)N[C@@H](CCC(=O)O)C(=O)N[C@@H](CCCNC(=N)N)C(=O)N1CCC[C@H]1C(=O)N[C@@H](CO)C(=O)NCC(=O)O [29N]		50.0 ±0.1 °C	
CC[C@H](C)[C@H](NC(=O)[C@H](Cc1c[nH]cn1)NC(=O)[C@H](CC(N)=O)NC(=O)[C@H](Cc1ccccc1)NC(=O)[C@H](Cc1ccc(O)cc1)NC(=O)[C@H](Cc1ccc(O)cc1)NC(=O)[C@@H](NC(=O)[C@H](CCCNC(=N)N)NC(=O)CNC(=O)[C@H](CO)NC(=O)[C@H](CO)NC(=O)[C@H](CCCNC(=N)N)NC(=O)[C@H](CO)NC(=O)[C@H](CCSC)NC(=O)[C@H](CCCNC(=N)N)NC(=O)[C@H](CCCCN)NC(=O)[C@H](CCC(=O)O)NC(=O)[C@H](Cc1c[nH]c2ccccc12)NC(=O)CNC(=O)[C@@H]1CCCN1C(=O)[C@@H]1CCCN1C(=O)[C@H](CC(C)C)NC(=O)[C@@H](N)CCCCN)C(C)C)C(=O)N[C@H](C(=O)N[C@@H](CC(N)=O)C(=O)N[C@@H](C)C(=O)N[C@@H](CC(N)=O)C(=O)N[C@@H](CCC(N)=O)C(=O)N[C@@H](Cc1ccccc1)C(=O)N[C@@H](CCC(=O)O)C(=O)N[C@@H](CCCNC(=N)N)C(=O)N1CCC[C@H]1C(=O)N[C@@H](CO)C(=O)NCC(=O)O)[C@@H](C)O [32N]	45.1 ±0.2 °C		
CC[C@H](C)[C@H](NC(=O)[C@H](CC(N)=O)NC(=O)[C@H](CC(N)=O)NC(=O)[C@H](Cc1ccccc1)NC(=O)[C@H](Cc1ccc(O)cc1)NC(=O)[C@H](Cc1ccc(O)cc1)NC(=O)[C@@H](NC(=O)[C@H](CCCNC(=N)N)NC(=O)CNC(=O)[C@H](CO)NC(=O)[C@H](CO)NC(=O)[C@H](CCCNC(=N)N)NC(=O)[C@H](CO)NC(=O)[C@H](CCSC)NC(=O)[C@H](CCCNC(=N)N)NC(=O)[C@H](CCCCN)NC(=O)[C@H](CCC(=O)O)NC(=O)[C@H](Cc1c[nH]c2ccccc12)NC(=O)CNC(=O)[C@@H]1CCCN1C(=O)[C@@H]1CCCN1C(=O)[C@H](CC(C)C)NC(=O)[C@@H](N)CCCCN)C(C)C)C(=O)N[C@H](C(=O)N[C@@H](CC(N)=O)C(=O)N[C@@H](C)C(=O)N[C@@H](CO)C(=O)N[C@@H](CCC(N)=O)C(=O)N[C@@H](Cc1ccccc1)C(=O)N[C@@H](CCC(=O)O)C(=O)N[C@@H](CCCNC(=N)N)C(=O)N1CCC[C@H]1C(=O)N[C@@H](CO)C(=O)NCC(=O)O)[C@@H](C)O [27N]		54.9 ±0.1 °C	
